Data on 3 compounds can be found in paper PMC10577695, “A Novel 7H-[1,2,4]Triazolo[3,4-b]thiadiazine-based Cystic Fibrosis Transmembrane Conductance Regulator Potentiator Directed toward Treatment of Cystic Fibrosis” (ACS Medicinal Chemistry Letters, 2023).

Molecules are shown by their SMILES.

Assay in all cases: CFTR current in FRT cells expressing G551D CFTR, […] compound with VX-770
What all share (format): cell-based

The target in assay [1] is T1, cystic fibrosis transmembrane conductance regulator (CFTR) (Homo sapiens, UniProt P13569, G551D).
In assay [2] the target is T1, cystic fibrosis transmembrane conductance regulator (CFTR). This is another data set of the same source.
Assay [3] has the same target. The source holds these as a separate data set.

T1 sequence (P13569 whole entry G551D): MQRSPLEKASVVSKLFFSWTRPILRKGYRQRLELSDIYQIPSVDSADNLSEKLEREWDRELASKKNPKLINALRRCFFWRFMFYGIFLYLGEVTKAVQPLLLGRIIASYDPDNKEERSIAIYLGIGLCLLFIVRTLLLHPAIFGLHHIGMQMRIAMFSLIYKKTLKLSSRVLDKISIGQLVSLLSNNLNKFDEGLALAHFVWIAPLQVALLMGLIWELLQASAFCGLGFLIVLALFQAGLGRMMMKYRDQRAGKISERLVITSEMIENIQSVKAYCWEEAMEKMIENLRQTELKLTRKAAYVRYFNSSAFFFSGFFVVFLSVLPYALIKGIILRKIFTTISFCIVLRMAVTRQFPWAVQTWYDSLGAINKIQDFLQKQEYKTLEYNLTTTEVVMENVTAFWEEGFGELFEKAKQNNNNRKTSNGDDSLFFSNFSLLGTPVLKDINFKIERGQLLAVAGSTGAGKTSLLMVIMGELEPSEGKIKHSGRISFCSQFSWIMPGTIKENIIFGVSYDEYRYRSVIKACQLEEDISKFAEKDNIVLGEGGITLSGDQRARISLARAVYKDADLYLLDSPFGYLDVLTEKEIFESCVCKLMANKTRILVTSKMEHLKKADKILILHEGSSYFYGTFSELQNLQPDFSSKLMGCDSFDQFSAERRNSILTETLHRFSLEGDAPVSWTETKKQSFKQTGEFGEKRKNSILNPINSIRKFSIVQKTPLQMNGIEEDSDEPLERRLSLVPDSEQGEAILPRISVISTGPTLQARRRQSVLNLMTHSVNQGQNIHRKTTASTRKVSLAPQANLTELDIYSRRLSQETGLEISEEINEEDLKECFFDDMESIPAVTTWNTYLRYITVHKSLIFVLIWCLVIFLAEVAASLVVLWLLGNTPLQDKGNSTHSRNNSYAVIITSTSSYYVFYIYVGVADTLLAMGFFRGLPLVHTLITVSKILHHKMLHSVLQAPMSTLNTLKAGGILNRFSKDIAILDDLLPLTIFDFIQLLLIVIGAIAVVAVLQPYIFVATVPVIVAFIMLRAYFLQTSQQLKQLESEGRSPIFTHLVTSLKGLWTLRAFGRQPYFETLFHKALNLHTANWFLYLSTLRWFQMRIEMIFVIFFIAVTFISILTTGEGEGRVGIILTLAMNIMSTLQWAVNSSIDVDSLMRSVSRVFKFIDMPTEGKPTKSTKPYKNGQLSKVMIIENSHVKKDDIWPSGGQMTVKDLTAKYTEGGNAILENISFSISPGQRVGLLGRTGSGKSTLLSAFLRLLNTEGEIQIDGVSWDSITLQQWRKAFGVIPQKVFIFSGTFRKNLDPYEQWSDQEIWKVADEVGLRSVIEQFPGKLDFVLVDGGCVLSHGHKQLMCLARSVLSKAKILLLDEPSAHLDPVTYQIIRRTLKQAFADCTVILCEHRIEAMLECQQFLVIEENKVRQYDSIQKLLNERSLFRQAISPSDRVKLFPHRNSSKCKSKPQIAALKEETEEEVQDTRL

For the compound `CC(C)(C)C1=Nn2c(nnc2-c2ccc(Cl)cc2Cl)SC1` [8d], in assay [1], the “% gain above VX-770 alone” value is ~ 400 % gain above VX-770 alone.

For `CC(C)C1=Nn2c(nnc2-c2cc(Cl)ccc2Br)SC1` [9c], the “CFTR current in FRT cells expressing G551D CFTR, 10 μM compound with VX-770” value in assay [2] is 2-bromo-5-chloro series with 9c and 9d showing the highest levels of activity.

As for `COc1ccc(Br)c(-c2nnc3n2N=C(C(C)C)CS3)c1` [10a], the “% G551D CFTR stimulation compared to VX-770 alone” value in assay [3] is listed as 232 % G551D CFTR stimulation compared to VX-770 alone.
